Results published in US20230087140A1, “TREATMENT OF PAIN ASSOCIATED WITH CESAREAN SECTION SURGERY WITH SUSTAINED-RELEASE LIPOSOMAL ANESTHETIC COMPOSITIONS” (Pacira Pharmaceuticals, Inc., priority 2020, published 2023).
Where a name gives a salt, the structure may show the parent alone.

How the values were obtained:
[1] = tested on: patients undergoing elective cesarean delivery; assay: Clinical trial safety: treatment-emergent adverse events through day 14 (safety analysis set)
[2] = cited from earlier work
[3] = tested on: patients undergoing elective cesarean delivery; assay: Randomized double-blind clinical trial, efficacy of TAP block after cesarean delivery (opioid consumption, VAS pain); format: in vivo, human; details: mITT
[4] = TEAEs occurring in >5% of patients in either group
[5] = safety analysis set, through day 14
[6] = treatment-relatedness determined by the investigator

With `CCCCN1CCCCC1C(=O)Nc1c(C)cccc1C` (centres unmarked) [BUPI HCl alone, bupivacaine hydrochloride] the “TEAE: Back pain” value [1, 4] was 5 (5.6) number (percentage), the “TEAE: Constipation” value [1, 4] was 4 (4.5) number (percentage) and the “TEAE: Dizziness” value [1, 4] was 5 (5.6) number (percentage). For the same molecule, the “TEAE: Headache” value [1, 4] was 10 (11.2) number (percentage), the “TEAE: Nausea” value [1, 4] was 11 (12.4) number (percentage) and the “TEAE: Pruritus” value [1, 4] was 28 (31.5) number (percentage). For the same molecule, the “TEAE: Rash” value [1, 4] was 3 (3.4) number (percentage), the “TEAE: Vomiting” value [1, 4] was 6 (6.7) number (percentage) and the “Any TEAE” value [1, 5] was 50 (56.2) number (percentage). For the same molecule, the “Any treatment-related TEAE” value [1, 5] was 9 (10.1) number (percentage), the “Fatal TEAE” value [1, 5] was 0 (0.0) number (percentage) and the “Serious TEAE” value [1, 5] was 3 (3.4) number (percentage). The “Serious TEAEs” value ([1]; summary of results) was ~3%, the “fatal TEAEs” value ([1]; summary of results) was “no fatal TEAEs” and the “patients who experienced a TEAE” value ([1]; summary of results) was 56.2%. The “Treatment-related TEAE: Back pain” value [1, 6] was 1 (1.1) number (percentage), the “Treatment-related TEAE: Dizziness” value [1, 6] was 0 (0.0) number (percentage) and the “Treatment-related TEAE: Dysuria” value [1, 6] was 1 (1.1) number (percentage). The “Treatment-related TEAE: Nausea” value [1, 6] was 0 (0.0) number (percentage), the “Treatment-related TEAE: Pruritus” value [1, 6] was 8 (9.0) number (percentage) and the “Treatment-related TEAE: Vomiting” value [1, 6] was 0 (0.0) number (percentage). The “expected duration of action in spinal anesthesia” value ([2]; 1.4 to 1.6 mL hyperbaric BUPI HCl 0.75%, spinal) was ~2 h, the duration of analgesia ([2]; standard local anesthetics, TAP block background) was 5 to 8 h and the “percentage of opioid-free patients at 24 hours” value ([3]; 24 hours) was 93.7%. The “percentage of opioid-free patients at 48 hours” value ([3]; 48 hours) was 50.6%, the “percentage of opioid-free patients at 72 hours” value ([3]; 72 hours) was 48.6% and the “percentage of opioid-spared patients at 72 hours” value ([3]; 72 hours) was 24.7%. For the same molecule, the “median time to first opioid rescue” value ([3]; median) was 41.1 h and the “LSM (SE) AUC0-72 of VAS pain intensity scores through 72 hours” value ([3]; through 72 hours, hydrochloride) was 178.5 (19.78).
